Article PMC3095642, “New Synthetic Thrombin Inhibitors: Molecular Design and Experimental Verification” (PLoS ONE, 2011)
Where two headings read alike, the source gives them in different places. Marks after values point to notes of the source that are not given here.

Columns and labels:
Human thrombin = molecular target: T1, Human thrombin (Homo sapiens, UniProt P00734); test: Thrombin induced hydrolysis of specific substrates in buffer system; assay type: biochemical
T1 construct: Human thrombin (8.3 mg/ml) was obtained from Hematologic Technologies Inc; purchased Hematologic Technologies Inc. (Essex Junction, VT, USA)
Description: The kinetics of thrombin inhibition was determined from the hydrolysis reaction of a specific substrate by thrombin in the presence of the tested substances. The chromogenic substrate (Tosyl-Gly-Pro-Arg-p-nitroanilide) or fast fluorogenic substrate (BOC-Ala-Pro-Arg-AMC) was used.
Plate wells were filled with 20 mM HEPES (pH 8.0) containing 140 mM NaCl and 0.1% polyethylene glycol (molecular weight 6000 Da). Thereafter, substrate was sequentially added to each well (final concentration, 100 µM), followed by the substance being tested (to a final concentration that was varied) and thrombin (final concentration, 0.2 nM). The hydrolysis rate was monitored spectrophotometrically at 405 nm (absorption maximum of the reaction product – p-nitroaniline), or fluorometrically (λex = 380 nm; λem = 440 nm for fluorescent reaction product 7-amino-4-methylcoumarine).
The initial rate was determined as the slope of the linear portion of the kinetic curve over the first 10 to 20 min of measurement. The inhibitory effect was expressed as the percentage reduction of the initial hydrolysis rate. The reaction rate in the absence of inhibitor was taken as 100%. Each result is the mean of two parallel determinations.
The inhibitor concentration was determined decreasing hydrolysis rate to 50% (IC50). Values of the inhibition constants were calculated on the assumption about competitive mechanism of inhibition using equation (1) [drawing 1] (1) where: KI - the constant of inhibition,
• S - the concentration of a substrate (100 µM), • KM - the Michaelis constant of a specific substrate for thrombin (9.44 µM, average from ref. [23], [24] and our measurements for chromogenic and 13 µM for the fluorogenic substrate, respectively).

[1] = test system: thrombin generation in normal donor plasma (PPP); test: Thrombin generation test in plasma (endogenous thrombin potential, ETP); assay type: biochemical, human
Description: The kinetics of thrombin generation in plasma was monitored using a modification of the standard method using a slow fluorogenic substrate BOC-Ile-Gly-Arg-AMC [8]. Normal donor plasma (PPP) was placed in the wells (90 µl/well) of a 96-well flat-bottom microtiter plate, after which 10 µl of the substance solution to be tested was added in different concentrations, along with 10 µl of the slow fluorogenic substrate (initial concentration 5 mM). In the control wells (without inhibitor), 10 µl of the solvent used was added (20 mM HEPES, pH 7.5 and 140 mM NaCl; or pure ethanol, or dimethylsulfoxide (DMSO) for different substances). The samples were incubated at 37°C for 3–5 min before being activated with thromboplastin, which was a 1∶250 dilution of a standard prothrombin time reagent (Renam, Moscow, Russia) in the same buffer supplemented with 90 mM CaCl2. The final concentration of tissue factor during activation was about 4 pM. Thromboplastin (25 µl) was added to all wells simultaneously using a multichannel micropipette. The moment of thromboplastin addition was taken as time zero. The kinetics of accumulation of the fluorescent reaction product 7-amino-4-methylcoumarine (AMC) was recorded for 65 min with a fluorometric Fluoroscan II reader (LabSystem, Finland) (λex. = 380 nm; λem. = 440 nm). The results were averaged over two parallel samples. The error of parallel measurements was within 2–5%. At every moment, the rate of product accumulation is proportional to the instant thrombin concentration present in plasma. Therefore, the curve for the temporal evolution of thrombin in the system may be obtained using differentiation of the curve for AMC accumulation. For each sample, arbitrary fluorescence units were converted to absolute AMC concentrations using the calibration signal obtained by adding a known AMC concentration into each particular plasma sample in the presence of the fluorogenic substrate and the tested substance. The corrections were done taking into account the substrate consumption and the nonlinearity of the AMC calibration curve. The area under the thrombin time curve over a period of 60 min (endogenous thrombin potential, ETP) was determined.

C57Bl/6 mice [2] = test: Acute toxicity in mice; assay type: in vivo, mouse; conditions: females, mortality after 2 or less hours
Description: Preliminary safety examination for the best synthesized inhibitors was carried out by measuring their acute toxicity in C57Bl/6 mice (females, 26–28 g, intraperitoneal administration). The total number of animals used in each experiment was 20–35. The dose of inhibitor that caused mortality in half of the animals after 2 or less hours (LD50) was determined. […] For administration of different doses of an inhibitor, different volumes of the initial stock inhibitor solution were supplemented with corresponding volumes of vehicle (20% cremophore EL in normal saline) to obtain a constant administered volume of 1.8 ml in each case. To obtain the highest doses of inhibitors, the animals were injected with 2.3 ml of stock inhibitor solutions instead.

[3] = test system: hemodilution-induced hypercoagulation in rats; test: Model of hemodilution-induced hypercoagulation in rats; assay type: in vivo, rat; conditions: 23.0±4.5% blood loss, infusion of saline supplemented with 2 µM inhibitor, 10, 30 or 60 min after infusion
Description: In particular, 200 µl of PPP samples were placed in the wells of a 96-well plate. Then, 2 µl of a solution of fluorogenic substrate BOC-Ile-Gly-Arg-AMC in DMSO (initial concentration 41 mM) was added, and coagulation was triggered by 3 µl of activator, which was a 1∶20 dilution of a standard prothrombin time reagent (Renam, Moscow, Russia) in the buffer (20 mM HEPES, 140 mM NaCl, pH 7.5) supplemented with 1.4 M CaCl2. Measurement of fluorescence (120 min) and processing of the results obtained were carried out by the methods described earlier.
The anticoagulation activity of one of the new thrombin inhibitors (4i) was studied in vivo in a newly developed model of hemodilution-induced hypercoagulation in rats. Experiments were carried out on male outbred white rats weighing 250–450 g and housed in a vivarium. A polyethylene cannula was implanted into the right femoral artery of the rats, which were anesthetized with thiopental (40 mg/kg of body weight, i.p.), to a depth of 4–5 cm. […] Coagulation was analyzed in samples of blood collected before hemodilution for all animals. […] The volume of blood loss was calculated on the assumption that the total blood volume of the rat is equal to 6.5% of the body weight.

[4] = test system: thrombin generation in normal donor plasma (PPP); conditions: ref [36], [37], read-out: IC50 for ETP reduction; cited from earlier work
C57Bl/6 mice [5] = conditions: ref [38]; cited from earlier work
[6] = chromogenic substrate (SCHR), calculated assuming competitive type of inhibition, read-out: Inhibition of thrombin activity (in buffer system) Ki
[7] = chromogenic substrate (SCHR), read-out: Inhibition of thrombin activity (in buffer system) IC50
[8] = Table S2, read-out: IC50 for ETP reduction in plasma
[9] = chromogenic substrate Tosyl-Gly-Pro-Arg-p-nitroanilide, calculated assuming competitive inhibition, KM 9.44 µM, read-out: KI for thrombin inhibition in buffer system
[10] = ETP reduction by 50% in plasma in vitro, read-out: IC50 for reduction of thrombin generation in plasma
[11] = fast fluorogenic substrate (SFLUO), 100 µM, thrombin 0.2 nM, read-out: Inhibition of specific thrombin substrate hydrolysis in buffer system IC50
[12] = fast fluorogenic substrate (SFLUO), calculated from IC50 assuming a competitive mechanism of inhibition, read-out: Inhibition of specific thrombin substrate hydrolysis in buffer system KI

SMILES | IC50 (Human thrombin; [7]) [nM] | Ki (Human thrombin; [9]) [nM] | IC50 [1, 10] [nM] | LD50 (mouse), intraperitoneal administration (C57Bl/6 mice [2]) | also measured
CNC(=N)SCCCOc1cc(C)cc(OS(=O)(=O)c2ccccc2Cl)c1 [8g] | 5500 | – | – | – | Ki (Human thrombin; [6]): 474 nM; IC50 [1, 8]: 25200 nM
Cc1cc(OCC[n+]2ccc(N)cc2)cc(OS(=O)(=O)c2ccc(Cl)cc2)c1.[I-] [4h] | 9 | 0.78 | 150 | 372.7 ± 84.6 mg/kg | –
CC(C)(C)CC(C)(C)c1ccc(OCCSC(=N)N)cc1 [NSC 4482] | – | – | – | – | IC50 (Human thrombin; [11]): 3450 nM; Ki (Human thrombin; [12]): 400 nM
Cc1cc(OCC[n+]2ccc(N)cc2)cc(OS(=O)(=O)c2ccccc2S(C)(=O)=O)c1.[I-] [4g] | 8.7 | 0.75 | 160 | 166.7 ± 20.0 mg/kg | –
Cc1cc(OCCCSC(=N)N)cc(OS(=O)(=O)c2ccccc2)c1 [8a] | 97 | – | – | – | Ki (Human thrombin; [6]): 8.4 nM; IC50 [1, 8]: 8000 nM
CC12CCC3C(CC=C4CC(SC(=N)N)CCC43C)C1CCC2=O (stereo not drawn) [NSC 41339] | – | – | – | – | IC50 (Human thrombin; [11]): 240000 nM; Ki (Human thrombin; [12]): 27600 nM
Cc1cc(OCC[n+]2ccc(N)cc2)cc(OS(=O)(=O)c2ccccc2)c1.[I-] [4i] | 9 | 0.78 | 250 | 418.9 ± 33.0 mg/kg | Effect on development of hypercoagulation (change of ETP relative to initial level) [3]: canceled the hypercoagulation effect of hemodilution
CC(=O)C1CCC2C3CC=C4CC(SC(=N)N)CCC4(C)C3CCC12C (stereo not drawn) [NSC 123477] | – | – | – | – | IC50 (Human thrombin; [11]): 75000 nM; Ki (Human thrombin; [12]): 8600 nM
Cc1cc(OCCSC(=N)N)cc(OS(=O)(=O)c2ccccc2Cl)c1.I [8c] | 3.8 | 0.33 | 160 | 793.5 ± 118.5 mg/kg | –
Cc1cc(OCCCSC(=N)N)cc(OS(=O)(=O)c2ccccc2F)c1.I [8f] | 23.5 | 2.03 | 1240 | >653.1 ^5) mg/kg | –
Cc1cc(OCCSC(=N)N)cc(OS(=O)(=O)c2ccccc2)c1.I [8d] | 11 | 0.95 | 900 | >1111.1 mg/kg | –
Cc1cc(OCC[n+]2ccc(N)cc2)cc(OS(=O)(=O)c2ccccc2Cl)c1.[I-] [4f] | 2.44 | 0.21 | 260 | 679.0 ± 152.7 mg/kg | –
CNC(=N)SCCOc1cc(C)cc(OS(=O)(=O)c2ccccc2Cl)c1.I [8h] | 65.8 | 5.7 | 530 | >287.0 ^5) mg/kg | –
CC1CNc2c(cccc2S(=O)(=O)N[C@@H](CCCNC(=N)N)C(=O)N2CC[C@@H](C)C[C@@H]2C(=O)O)C1 (stereo partly drawn) [Argatroban] | – | – | 650 | – | IC50 [4]: 600 to 970 nM; LD50 (mouse), intraperitoneal administration (C57Bl/6 mice [5]): 475 mg/kg
Cc1cc(OCCC[n+]2ccc(N)cc2)cc(OS(=O)(=O)c2ccccc2Cl)c1 [4d] | 3400 | – | – | – | Ki (Human thrombin; [6]): 293 nM; IC50 [1, 8]: 40000 nM
Cc1ccc2nc(-c3ccc(CSC(=N)N)cc3)oc(=O)c2c1 [NSC 328131] | – | – | – | – | IC50 (Human thrombin; [11]): ~35000 nM; Ki (Human thrombin; [12]): 4000 nM
Cc1cc(OCCSC(=N)N)cc(OS(=O)(=O)c2ccccc2S(C)(=O)=O)c1.I [8b] | 17 | 1.5 | 800 | >458.0 ^5) mg/kg | –
Cc1cc(OCC[n+]2ccc(N)cc2)cc(OS(=O)(=O)c2ccccc2F)c1.[I-] [4e] | 3.5 | 0.3 | 100 | 523.1 ± 92.3 mg/kg | –
Cc1cc(OCCCSC(=N)N)cc(OS(=O)(=O)c2ccccc2Cl)c1 [8e] | 11.6 | – | – | – | Ki (Human thrombin; [6]): 1 nM; IC50 [1, 8]: 4100 nM
N=C(N)c1ccc(-c2ccc(-c3ccc(C(=N)N)cc3)o2)cc1 [NSC 305831] | – | – | – | – | IC50 (Human thrombin; chromogenic substrate (SCHR), 100 µM, thrombin 0.2 nM, read-out: Inhibition of specific thrombin substrate hydrolysis in buffer system IC50): 72000 nM; Ki (Human thrombin; chromogenic substrate (SCHR), calculated from IC50 assuming a competitive mechanism of inhibition, read-out: Inhibition of specific thrombin substrate hydrolysis in buffer system KI): 6200 nM
